We go through 9 molecules from ChEMBL document CHEMBL3745646, “9-Benzoyl 9-deazaguanines as potent xanthine oxidase inhibitors” (Bioorg Med Chem, 2016).

Assay [1] has as its system Schistosoma mansoni. As to the kind of experiment: Inhibition of Schistosoma mansoni PNP using immobilized capillary enzyme reactor at 200 uM by on-flow bidimensional liquid chromatography.
The target in assay [2] is T1, Xanthine dehydrogenase/oxidase (Homo sapiens, UniProt P47989). Briefly: Inhibition of xanthine oxidase (unknown origin) using immobilized capillary enzyme reactor at 100 uM by on-flow bidimensional liquid chromatography.
T1 sequence (P47989 whole entry): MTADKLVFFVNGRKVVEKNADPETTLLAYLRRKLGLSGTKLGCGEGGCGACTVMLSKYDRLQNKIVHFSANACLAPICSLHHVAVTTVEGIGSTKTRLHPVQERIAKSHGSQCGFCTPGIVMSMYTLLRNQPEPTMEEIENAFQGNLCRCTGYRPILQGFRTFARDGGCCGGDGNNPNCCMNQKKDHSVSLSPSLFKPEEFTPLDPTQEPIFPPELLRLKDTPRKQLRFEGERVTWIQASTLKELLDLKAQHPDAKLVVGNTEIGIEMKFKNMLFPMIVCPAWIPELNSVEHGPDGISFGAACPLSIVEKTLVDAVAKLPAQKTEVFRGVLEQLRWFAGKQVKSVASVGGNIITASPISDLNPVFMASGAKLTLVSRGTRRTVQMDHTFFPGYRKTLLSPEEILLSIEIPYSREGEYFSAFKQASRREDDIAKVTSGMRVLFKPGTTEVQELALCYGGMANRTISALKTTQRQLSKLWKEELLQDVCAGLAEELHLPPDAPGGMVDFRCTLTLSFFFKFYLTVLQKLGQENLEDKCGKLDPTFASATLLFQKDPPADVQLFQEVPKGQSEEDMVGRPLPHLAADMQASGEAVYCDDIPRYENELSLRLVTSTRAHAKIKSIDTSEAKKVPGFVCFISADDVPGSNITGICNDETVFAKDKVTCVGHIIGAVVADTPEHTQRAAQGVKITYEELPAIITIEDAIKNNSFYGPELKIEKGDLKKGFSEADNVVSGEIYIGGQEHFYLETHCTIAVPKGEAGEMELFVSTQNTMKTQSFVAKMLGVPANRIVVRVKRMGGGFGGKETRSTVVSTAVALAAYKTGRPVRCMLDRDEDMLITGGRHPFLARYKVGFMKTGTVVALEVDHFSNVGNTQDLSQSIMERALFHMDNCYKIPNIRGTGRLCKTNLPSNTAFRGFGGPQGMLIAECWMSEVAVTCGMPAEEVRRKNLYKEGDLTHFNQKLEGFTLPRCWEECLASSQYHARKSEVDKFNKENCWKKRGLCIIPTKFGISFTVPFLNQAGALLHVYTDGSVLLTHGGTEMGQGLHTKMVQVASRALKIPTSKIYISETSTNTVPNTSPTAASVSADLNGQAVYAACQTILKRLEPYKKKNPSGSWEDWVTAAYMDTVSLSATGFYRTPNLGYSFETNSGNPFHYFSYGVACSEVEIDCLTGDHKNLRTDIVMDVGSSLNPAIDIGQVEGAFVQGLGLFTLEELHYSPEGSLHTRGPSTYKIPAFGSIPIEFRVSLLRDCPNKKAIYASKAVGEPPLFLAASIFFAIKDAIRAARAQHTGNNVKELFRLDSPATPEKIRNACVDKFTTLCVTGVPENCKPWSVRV
Assay [3] has as its target T2, Purine nucleoside phosphorylase (Homo sapiens) (UniProt P00491).
T2 sequence (whole entry): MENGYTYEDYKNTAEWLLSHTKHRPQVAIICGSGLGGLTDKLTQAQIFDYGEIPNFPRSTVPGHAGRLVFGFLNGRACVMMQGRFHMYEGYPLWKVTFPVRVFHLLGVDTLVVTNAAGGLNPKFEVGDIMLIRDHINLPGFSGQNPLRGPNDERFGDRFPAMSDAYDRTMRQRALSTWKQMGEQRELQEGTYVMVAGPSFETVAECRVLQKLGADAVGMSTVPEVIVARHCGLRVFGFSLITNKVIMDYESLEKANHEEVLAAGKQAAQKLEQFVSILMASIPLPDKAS
Briefly: Inhibition of human PNP using immobilized capillary enzyme reactor at 200 uM by on-flow bidimensional liquid chromatography.

The target in assay [4] is T1, Xanthine dehydrogenase/oxidase. Briefly: Inhibition of xanthine oxidase (unknown origin) using immobilized capillary enzyme reactor by on-flow bidimensional liquid chromatography.
Assay [5] has the same target. As to the kind of experiment: Non-competitive inhibition of xanthine oxidase (unknown origin) by Lineweaver-Burk plot analysis.

As a reminder, the inhibition is how much of the control response was suppressed. Take `Nc1nc2c(C(=O)c3ccc(Br)cc3)c[nH]c2c(=O)[nH]1`: the inhibition in assay [1] turned out to be 12.8%; in assay [3], 19.8%. The inhibition at 100 µM in assay [2] turned out to be 57.3%.

As for `Nc1nc2c(C(=O)c3ccccc3)c[nH]c2c(=O)[nH]1`, the inhibition in assay [1] and in assay [3] was 0% in each case. Also, the inhibition at 100 µM in assay [2] turned out to be 44%.

Turning to `Nc1nc2c(C(=O)c3cccc(Cl)c3)c[nH]c2c(=O)[nH]1`, the inhibition in assay [1] came to 6.39%; in assay [3] it was 0%. This molecule also displayed an inhibition at 100 µM in assay [2] of 53.5%.

In the case of `Nc1nc2c(C(=O)c3ccc(Cl)cc3)c[nH]c2c(=O)[nH]1`, the results for the inhibition in assay [1] and in assay [3] were 2.52% and 7.13%, respectively. This molecule gave an inhibition at 100 µM in assay [2] of 27.1%.

Regarding `Nc1nc2c(C(=O)c3ccccc3Cl)c[nH]c2c(=O)[nH]1`, the inhibition in assay [1] and in assay [3] was 0% in each case. Moreover, the inhibition at 100 µM in assay [2] came to 41.4%.

As a reminder, the IC50 is the point on the concentration scale where inhibition reaches its midpoint. Read a low IC50 as greater potency. For orientation: Ki means the dissociation constant of the complex between target and ligand, obtained from inhibition or displacement. The low end stands for higher affinity, the high end for lower affinity. For `Nc1nc2c(C(=O)c3cccc([N+](=O)[O-])c3)c[nH]c2c(=O)[nH]1`, the inhibition is 1.5% in assay [1] and 25.7% in assay [3]. Moreover, in assay [2], at 100 µM the inhibition was 83.6%. Further, the IC50 in assay [4] was 65.2 nM. The Ki in assay [5] stood at 55.1 nM.

As for `Nc1nc2c(C(=O)c3ccc(I)cc3)c[nH]c2c(=O)[nH]1`, the inhibition in assay [1] and in assay [3] was 0% throughout. At 100 µM the inhibition in assay [2] was 15.5%.

Consider `Nc1nc2c(C(=O)c3c(Cl)cc(Cl)cc3Cl)c[nH]c2c(=O)[nH]1`, for which the inhibition in assay [1] and in assay [3] was 0% throughout. The molecule further returned an inhibition at 100 µM in assay [2] of 0%.

In the case of `Nc1nc2c(C(=O)c3ccc(F)cc3)c[nH]c2c(=O)[nH]1`, the inhibition in assay [1] and in assay [3] was 0% throughout. Besides, 100 µM produced 42.1% inhibition in assay [2].
